In US4321384A, “Antihypertensive agents” (American Home Products Corporation, priority 1981, dated 1982):

Tests used:
[1] = system: spontaneously hypertensive rats; assay: Systolic blood pressure lowering in spontaneously hypertensive rats; assay type: in vivo, rat
Description: The in vivo blood pressure lowering ability of the compounds of this invention was established by measuring the systolic pressure of spontaneously hypertensive rats with a Decker Caudal Plethysmograph or similar sensor device. The compound being tested is administered to groups of four rats and their blood pressure is read prior to compound administration and at 1.5 and 4 hours after compound administration. Depending upon the behavior of the compound being tested, the schedule of blood pressure readings and route of administration is modified. Initially the compounds are administered orally but where compound solubility is a factor, the compounds may be administered parenterally (i.e. i.p., i.m., s.c., i.v., etc.) as desired. The compounds of this invention were initially administered orally at a standard testing dose of 50 mg/kg.
The following examples illustrate the preparation of a representative number of compounds of this invention. After each example, the Ca^+2 antagonist activity of the compound is presented in terms of percent relaxation (P.R.) at the stated concentration. Similarly, the antihypertensive activity is reported in terms of millimeters mercury (mmHg) blood pressure (B.P.) reduction at the stated time post 50 mg/kg oral dosing.

[2] = system: rabbit aortic strips; assay: Ca+2 antagonism: relaxation of potassium-contracted rabbit aortic strips; assay type: cell-based; details: Oryctolagus cuniculus; 10^-5 M bath concentration; strips contracted with 100 millimoles potassium ion; read-out: percent relaxation (P.R.)
Description: After a stable active tension has developed in the strip, as measured by Statham UC-2 force transducers and recorded on an eight channel Beckman Dynograph Polygraphic Recorder, an amount of the antagonist was added to the organ bath to make a 10^-5 molar concentration of antagonist. The […] effect, expressed as percent relaxation, was taken from the mean of at least two experiments. […] A Ca^+2 antagonist producing a 20 percent relaxation of aortic tissue in this test procedure at a 10^-5 molar bath concentration of the antagonist, generally produces a significant reduction in blood pressure when a sufficient amount is given to the spontaneously hypertensive rat. The following examples illustrate the preparation of a representative number of compounds of this invention. After each example, the Ca^+2 antagonist activity of the compound is presented in terms of percent relaxation (P.R.) at the stated concentration. Similarly, the antihypertensive activity is reported in terms of millimeters mercury (mmHg) blood pressure (B.P.) reduction at the stated time post 50 mg/kg oral dosing.

[3] = 1.5 hours post 50 mg/kg oral dosing
[4] = 4 hours post 50 mg/kg oral dosing

Compound	blood pressure (B.P.) reduction [1, 3]	blood pressure (B.P.) reduction [1, 4]	inhibition at 10 µM [2]
COC(=O)C1=C(C)NC2=C(C(=O)CN(C)C2)C1c1ccccc1Cl (stereo not drawn) [Example 8, 4-(2-chlorophenyl)-1,4,5,6,7,8-Hexahydro-2,7-dimethyl-5-oxo-1,7-naphthyridine-3-carboxylic acid methyl ester]	-54 mmHg	-30 mmHg	28.3%
COC(=O)C1=C(C)NC2=C(C(=O)CNC2)C1c1ccccc1C (stereo not drawn) [Example 7, 1,4,5,6,7,8-Hexahydro-2-methyl-4-(2-methylphenyl)-5-oxo-1,7-naphthyridine-3-carboxylic acid:methyl ester]	-77 mmHg	-64 mmHg	46%
COC(=O)C1=C(C)NC2=C(C(=O)CN(C)C2)C1c1cccc(C)c1C (stereo not drawn) [Example 17, 4-(2,3-Dimethylphenyl)-1,4,5,6,7,8-hexahydro-2,7-dimethyl-5-oxo-1,7-naphthyridine-3-carboxylic acid methyl ester]		-40 mmHg	54%
COC(=O)C1=C(C)NC2=C(C(=O)CN(C)C2)C1c1cccc([N+](=O)[O-])c1 (stereo not drawn) [Example 6, 1,4,5,6,7,8-Hexahydro-2,7-dimethyl-4-(3-nitrophenyl)-5-oxo-1,7-naphthyridine-3-carboxylic acid methyl ester]	-85 mmHg	-47 mmHg	35%
COC(=O)C1=C(C)NC2=C(C(=O)CN(C)C2)C1c1ccccc1C (stereo not drawn) [Example 2, 1,4,5,6,7,8-Hexahydro-2,7-dimethyl-4-(2-methylphenyl)-5-oxo-1,7-naphthyridine-3-carboxylic acid methyl ester]	-57 mmHg	-28 mmHg	31%
COC(=O)C1=C(C)NC2=C(C(=O)CNC2)C1c1cccc(C)c1C (stereo not drawn) [Example 21, 4-(2,3-dimethylphenyl)-1,4,5,6,7,8-hexahydro-2-methyl-5-oxo-1,7-naphthyridine-3carboxylic acid methyl ester]	-42 mmHg	-45 mmHg	76.7%
COC(=O)C1=C(C)NC2=C(C(=O)CN(C)C2)C1c1cccc(C#N)c1 (stereo not drawn) [Example 16, 4-(3-Cyanophenyl)-1,4,5,6,7,8-Hexahydro-2,7-dimethyl-5-oxo-1,7-naphthyridine-3-carboxylic acid methyl ester]	-53 mmHg		66%
COC(=O)C1=C(C)NC2=C(C(=O)CN(C)C2)C1c1cc(C)ccc1C (stereo not drawn) [Example 11, 4-(2,5-Dimethylphenyl)-1,4,5,6,7,8-hexahydro-2,7-dimethyl-5-oxo-1,7-naphthyridine-3-carboxylic acid methyl ester]			22%
COC(=O)C1=C(C)NC2=C(C(=O)CNC2)C1c1ccccc1C(F)(F)F (stereo not drawn) [Example 12, 1,4,5,6,7,8-Hexahydro-2-methyl-5-oxo-4-[2-(trifluoromethyl)phenyl]-1,7-naphthyridine-3-carboxylic acid methyl ester]	-88 mmHg		89.1%
CCCCc1ccccc1C1C(C(=O)OC)=C(C)NC2=C1C(=O)CNC2 (stereo not drawn) [Example 19, 4-[2-(n-butyl)phenyl]-1,4,5,6,7,8-hexahydro-2-methyl-5-oxo-1,7-naphthyridine-3-carboxylic acid methyl ester]	-24 mmHg		49.2%
COC(=O)C1=C(C)NC2=C(C(=O)CN(C)C2)C1c1ccccc1[N+](=O)[O-] (stereo not drawn) [Example 1, 1,4,5,6,7,8-Hexahydro-2,7-dimethyl-4-(2-nitrophenyl)-5-oxo-1,7-naphthyridine-3-carboxylic acid methyl ester]	-27 mmHg	-21 mmHg	14%
